Results taken from patent publication US8962608B2, “Cycloalkylnitrile pyrazole carboxamides as janus kinase inhibitors” (Merck Sharp & Dohme Corp., priority 2011, dated 2015).

Molecular target: JAK2 (recombinant purified GST-tagged catalytic domain) (Homo sapiens (Human), UniProt O60674)
Assay: biochemical
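Also: biochemical JAK kinase assay with HTRF detection.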

JAK2 (recombinant purified GST-tagged catalytic domain), sequence (O60674 849-1124): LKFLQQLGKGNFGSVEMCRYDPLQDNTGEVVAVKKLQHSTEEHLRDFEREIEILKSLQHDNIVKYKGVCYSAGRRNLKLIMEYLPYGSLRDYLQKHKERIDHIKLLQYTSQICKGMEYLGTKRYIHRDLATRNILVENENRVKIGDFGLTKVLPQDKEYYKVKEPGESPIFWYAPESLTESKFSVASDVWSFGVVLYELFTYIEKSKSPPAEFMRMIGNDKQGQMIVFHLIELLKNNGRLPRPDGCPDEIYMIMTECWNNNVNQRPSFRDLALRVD

| IC50 [nM] | Structure (SMILES) |
| --- | --- |
| 13 | N#C[C@H]1C[C@@H](N2CCC2)CC[C@@H]1n1cc(C(N)=O)c(Nc2ccc([C@@H](O)C(F)(F)F)cc2)n1 (single isomer, unassigned) [Example 28-87, 1-[(1S,2S,4S or 1R,2R,4R)-4-azetidin-1-yl-2-cyanocyclohexyl]-3-({4-[(1R or 1S)-2,2,2-trifluoro-1-hydroxyethyl]phenyl}amino)-1H-pyrazole-4-carboxamide] |
| 10 | N#C[C@H]1C[C@@H](O)CC[C@@H]1n1cc(C(N)=O)c(Nc2ccc(C3CC3)cc2)n1 (single isomer, unassigned) [Example 33-18, 1-[(1S,2S,4S or 1R,2R,4R)-2-cyano-4-hydroxycyclohexyl]-3-[(4-cyclopropylphenyl)amino]-1H-pyrazole-4-carboxamide] |
| 18 | CN(C)[C@H]1CC[C@H](n2cc(C(N)=O)c(Nc3ccc(OC(F)(F)F)cc3)n2)[C@@H](C#N)C1 (single isomer, unassigned) [Example 28-86, 1-[(1S,2S,4S or 1R,2R,4R)-2-cyano-4-(dimethylamino)cyclohexyl]-3-{[4-(trifluoromethoxy)phenyl]amino}-1H-pyrazole-4-carboxamide] |
| 11 | CC1(C)CN([C@@H]2CC[C@H](n3cc(C(N)=O)c(Nc4ccc([C@H](O)C(F)(F)F)cc4)n3)[C@@H](C#N)C2)C1 (single isomer, unassigned) [Example 28-44, 1-[(1S,2S,4R or 1R,2R,4S)-2-cyano-4-(3,3-dimethylazetidin-1-yl)cyclohexyl]-3-({4-[(1S or 1R)-2,2,2-trifluoro-1-hydroxyethyl]phenyl}amino)-1H-pyrazole-4-carboxamide] |
| 103 | N#C[C@H]1C[C@@H](C(=O)NC2CCC2)CC[C@@H]1n1cc(C(N)=O)c(Nc2ccc(Cl)cc2)n1 (single isomer, unassigned) [Example 35-12, 3-[(4-chlorophenyl)amino]-1-[(1S,2S,4S or 1R,2R,4R)-2-cyano-4-(cyclobutylcarbamoyl)cyclohexyl]-1H-pyrazole-4-carboxamide] |
| 92 | CN(C)[C@@H]1CC[C@H](n2cc(C(N)=O)c(Nc3ccc(OC(F)(F)F)cc3)n2)[C@@H](C#N)C1 (single isomer, unassigned) [Example 28-54, 1-[(1S,2S,4R or 1R,2R,4S)-2-cyano-4-(dimethylamino)cyclohexyl]-3-{[4-(trifluoromethoxy)phenyl]amino}-1H-pyrazole-4-carboxamide] |
| 18 | Cc1cc(Nc2nn([C@H]3CCCC[C@@H]3C#N)cc2C(N)=O)cnc1C#N (single isomer, unassigned) [Example 17-77, 1-[(1R,2R or 1S,2S)-2-cyanocyclohexyl]-3-[(6-cyano-5-methylpyridin-3-yl)amino]-1H-pyrazole-4-carboxamide] |
| 7 | CN([C@H]1CCC(n2cc(C(N)=O)c(Nc3ccc(Cl)cc3)n2)[C@@H](C#N)C1)C1(C)COC1 (single isomer, unassigned) [Example 28-232, 3-[(4-chlorophenyl)amino]-1-{(1S,2S,4S or 1R,2R,4R)-2-cyano-4-[methyl(3-methyloxetan-3-yl)amino]cyclohexyl}-1H-pyrazole-4-carboxamide] |
| 31 | N#C[C@H]1C[C@@H](NCC(F)(F)F)CC[C@@H]1n1cc(C(N)=O)c(Nc2ccc(S(=O)(=O)C(F)(F)F)cc2)n1 (single isomer, unassigned) [Example 28-107, 1-{(1S,2S,4S or 1R,2R,4R)-2-cyano-4-[(2,2,2-trifluoroethyl)amino]cyclohexyl}-3-({4-[(trifluoro-methyl)sulfonyl]phenyl}amino)-1H-pyrazole-4-carboxamide] |
| 135 | CN(CC1CC1)[C@@H]1CC[C@H](n2cc(C(N)=O)c(Nc3ccc(C(F)(F)F)cc3)n2)[C@@H](C#N)C1 (single isomer, unassigned) [Example 30-2, 1-{(1S,2S,4R or 1R,2R,4S)-2-cyano-4-[(cyclopropyl-methyl)(methyl)amino]cyclo-hexyl}-3-{[4-(trifluoromethyl)phenyl]amino}-1H-pyrazole-4-carboxamide] |
| 28 | N#C[C@H]1C[C@H](O)CC[C@@H]1n1cc(C(N)=O)c(Nc2ccc(C(F)(F)F)c(F)c2)n1 (single isomer, unassigned) [Example 25-23, 1-[(1S,2S,4R or 1R,2R,4S)-2-cyano-4-hydroxycyclohexyl]-3-{[3-fluoro-4-(trifluoromethyl)phenyl]amino}-1H-pyrazole-4-carboxamide] |
| 25 | CC1(N[C@H]2CCC(n3cc(C(N)=O)c(Nc4ccc(Cl)cc4)n3)[C@@H](C#N)C2)CCOCC1 (single isomer, unassigned) [Example 28-235, 3-[(4-chlorophenyl)amino]-1-{(1S,2S,4S or 1R,2R,4R)-2-cyano-4-[(4-methyltetrahydro-2H-pyran-4-yl)amino]cyclohexyl}-1H-pyrazole-4-carboxamide] |
| 28 | CC(C)(C)N[C@H]1CCC(n2cc(C(N)=O)c(Nc3ccccc3)n2)[C@@H](C#N)C1 (single isomer, unassigned) [Example 28-215, 1-[(1S,2S,4S or 1R,2R,4R)-4-(tert-butylamino)-2-cyanocyclohexyl]-3-(phenylamino)-1H-pyrazole-4-carboxamide] |
| 84 | N#C[C@H]1C[C@@H](N2CCC2)CC[C@@H]1n1cc(C(N)=O)c(Nc2ccc(Cl)c(F)c2)n1 (single isomer, unassigned) [Example 28-36, 1-[(1S,2S,4S or 1R,2R,4R)-4-azetidin-1-yl-2-cyanocyclohexyl]-3-[(4-chloro-3-fluorophenyl)amino]-1H-pyrazole-4-carboxamide] |
| 21 | CC1(CN[C@@H]2CC[C@H](n3cc(C(N)=O)c(Nc4ccc(C(F)(F)F)cc4)n3)[C@@H](C#N)C2)COC1 (single isomer, unassigned) [Example 28-16, 1-[(1S,2S,4R or 1R,2R,4S)-2-cyano-4-{[(3-methyloxetan-3-yl)methyl]amino}cyclohexyl]-3-{[4-(trifluoromethyl)phenyl]amino}-1H-pyrazole-4-carboxamide] |
| 21 | CC1(C)CN([C@H]2CC[C@H](n3cc(C(N)=O)c(Nc4ccc(Cl)cc4)n3)[C@@H](C#N)C2)C1 (single isomer, unassigned) [Example 28-144, 3-[(4-chlorophenyl)amino]-1-[(1S,2S,4S or 1R,2R,4R)-2-cyano-4-(3,3-dimethylazetidin-1-yl)cyclohexyl]-1H-pyrazole-4-carboxamide] |
| 20 | N#C[C@H]1C[C@H](O)CC[C@@H]1n1cc(C(N)=O)c(Nc2ccc(Cl)nc2)n1 (single isomer, unassigned) [Example 25-12, 3-[(6-chloropyridin-3-yl)amino]-1-[(1S,2S,4R or 1R,2R,4S)-2-cyano-4-hydroxycyclohexyl]-1H-pyrazole-4-carboxamide] |
| 5 | CS(=O)(=O)c1ccc(Nc2nn([C@H]3CC[C@H](N4CC5(CCC5)C4)C[C@@H]3C#N)cc2C(N)=O)cc1 (single isomer, unassigned) [Example 28-130, 1-[(1S,2S,4S or 1R,2R,4R)-4-(2-azaspiro[3.3]hept-2-yl)-2-cyanocyclohexyl]-3-{[4-(methylsulfonyl)phenyl]amino}-1H-pyrazole-4-carboxamide] |
| 11 | N#C[C@H]1C[C@@H](N2CCC2)CC[C@@H]1n1cc(C(N)=O)c(Nc2ccc([C@H](O)C(F)(F)F)cc2)n1 (single isomer, unassigned) [Example 28-47, 1-[(1S,2S,4S or 1R,2R,4R)-4-azetidin-1-yl-2-cyanocyclohexyl]-3-({4-[(1S or 1R)-2,2,2-trifluoro-1-hydroxyethyl]phenyl}amino)-1H-pyrazole-4-carboxamide] |
| 43 | CC(N[C@@H]1CC[C@H](n2cc(C(N)=O)c(Nc3ccc(S(=O)(=O)C(F)(F)F)cc3)n2)[C@@H](C#N)C1)C1CC1 (single isomer, unassigned) [Example 28-177, 1-[(1S,2S,4R or 1R,2R,4S)-2-cyano-4-{[(1S)-1-cyclopropylethyl]amino}cyclo-hexyl]-3-({4-[(trifluoromethyl)sulfonyl]phen-yl]amino)-1H-pyrazole-4-carboxamide] |
| 138 | N#C[C@@H]1CCCCC1n1cc(C(N)=O)c(Nc2ccccc2)n1 (mixture of isomers) [Example 1-3, 1-[(1S,2R and 1R,2S)-2-cyanocyclohexyl]-3-(phenylamino)-1H-pyrazole-4-carboxamide] |
| 2 | N#C[C@@H]1CCCC[C@H]1n1cc(C(N)=O)c(Nc2ccc(S(=O)(=O)C(F)F)cc2)n1 (single isomer, unassigned) [Example 43-6, 1-[(1S,2S or 1R,2R)-2-cyanocyclohexyl]-3-({4-[(difluoromethyl)sulfonyl]phenyl}amino)-1H-pyrazole-4-carboxamide] |
| 14 | N#C[C@H]1CC(N2CCC[C@@H]2CF)CC[C@@H]1n1cc(C(N)=O)c(Nc2ccc(S(=O)(=O)C(F)(F)F)cc2)n1 (single isomer, unassigned) [Example 28-156, 1-{(1S,2S or 1R,2R)-2-cyano-4-[(2R)-2-(fluoromethyl)pyrrolidin-1-yl]cyclohexyl}-3-({4-[(trifluoro-methyl)sulfonyl]phenyl}amino)-1H-pyrazole-4-carboxamide] |
| 155 | CN(C)[C@@H]1CC[C@H](n2cc(C(N)=O)c(Nc3ccc(C(F)(F)F)nc3)n2)[C@@H](C#N)C1 (single isomer, unassigned) [Example 28-25, 1-[(1S,2S,4R or 1R,2R,4S)-2-cyano-4-(dimethylamino)cyclohexyl]-3-{[6-(trifluoromethyl)pyridin-3-yl]amino}-1H-pyrazole-4-carboxamide] |
| 285 | CC1(C)CN([C@@H]2CC[C@H](n3cc(C(N)=O)c(Nc4ccc(C(F)(F)F)cc4)n3)[C@@H](C#N)C2)C1 (single isomer, unassigned) [Example 28-203, 1-[(1S,2S,4R or 1R,2R,4S)-2-cyano-4-(3,3-dimethylazetidin-1-yl)cyclohexyl]-3-{[4-(trifluoromethyl)phenyl]amino}-1H-pyrazole-4-carboxamidc] |
| 4 | CC1(C)CN([C@H]2CC[C@H](n3cc(C(N)=O)c(Nc4ccc([C@@H](O)C(F)(F)F)cc4)n3)[C@@H](C#N)C2)C1 (single isomer, unassigned) [Example 28-61, 1-[(1S,2S,4S or 1R,2R,4R)-2-cyano-4-(3,3-dimethylazetidin-1-yl)cyclohexyl]-3-({4-[(1R or 1S)-2,2,2-trifluoro-1-hydroxyethyl]phenyl}amino)-1H-pyrazole-4-carboxamide] |
